Among the data in ChEMBL document CHEMBL3045739, “Synthesis and Fungicidal Activity of 6-Alkyl Six-membered Cyclic Thiophosphates” (1997) are inhibition of growth values, retold here.

Molecules are shown by their SMILES.

What all share (format): functional
Experiment [1] concerns Athelia rolfsii. In words: Fungicidal activity against Athelia rolfsii assessed as fungal growth inhibition at 100 ppm by agar dilution method. The settings on record: Agroathelia rolfsii; read-out: GI.
Experiment [2] concerns Pythium. In words: Fungicidal activity against Pythium sp. assessed as fungal growth inhibition at 100 ppm by agar dilution method. As to conditions: read-out: GI.
Experiment [3] concerns Pythium. In words: Fungicidal activity against Pythium sp. assessed as fungal growth inhibition at 10 ppm by agar dilution method. As to conditions: read-out: GI.
Experiment [4] relates to Athelia rolfsii. Put plainly: Fungicidal activity against Athelia rolfsii assessed as fungal growth inhibition at 10 ppm by agar dilution method. As to conditions: Agroathelia rolfsii; read-out: GI.

As for `CCOP1(=S)OCc2cc(C(C)CC)ccc2O1` (stereo unspecified), the figures for the inhibition of growth at 100 ppm with Athelia rolfsii [1] and in the experiment on Pythium [2] were 67% and 56%, respectively.

For `CCCCc1ccc2c(c1)COP(=S)(OCC)O2` (stereo unspecified), the inhibition of growth at 100 ppm with Athelia rolfsii [1] came out at 76%; in the experiment on Pythium [2], 61%.

With `CCCCc1ccc2c(c1)COP(=S)(Oc1ccc(C)cc1C(C)C)O2` (stereo unspecified), the inhibition of growth at 100 ppm in the experiment with Athelia rolfsii [1] amounted to 41%; in the experiment with Pythium [2], 39%.

As for `CCCCc1ccc2c(c1)COP(=S)(Oc1cc(C)ccc1C(C)C)O2` (stereo unspecified), the inhibition of growth at 100 ppm stood at 58% in the experiment on Athelia rolfsii [1] and 83% in the experiment with Pythium [2]. Moreover, the inhibition of growth at 10 ppm in the experiment on Pythium [3] came out at 23%.

In the case of `CCCc1ccc2c(c1)COP(=S)(OCCc1ccccc1)O2` (stereo unspecified), the inhibition of growth at 100 ppm in the experiment with Athelia rolfsii [1] and with Pythium [2] was 48% throughout.

On to `CCCc1ccc2c(c1)COP(=S)(Oc1cc(C)ccc1C(C)C)O2` (stereo unspecified), for which the inhibition of growth at 100 ppm turned out to be 37% in the experiment with Athelia rolfsii [1] and 53% with Pythium [2].

With `CCCc1ccc2c(c1)COP(=S)(Oc1ccc(C)cc1C(C)C)O2` (stereo unspecified), the figures for the inhibition of growth at 100 ppm with Athelia rolfsii [1] and in the experiment on Pythium [2] were 27% and 3%, respectively.

Regarding `CCCc1ccc2c(c1)COP(=S)(OCC)O2` (stereo unspecified), the inhibition of growth at 100 ppm with Athelia rolfsii [1] worked out at 84%; in the experiment on Pythium [2], 56%. Also, in the experiment with Athelia rolfsii [4], the inhibition of growth at 10 ppm stood at 63%.

For `CCOP1(=S)OCc2cc(C(C)C)ccc2O1` (stereo unspecified), the inhibition of growth at 100 ppm in the experiment with Athelia rolfsii [1] stood at 83%; in the experiment on Pythium [2], 66%. Besides, the inhibition of growth at 10 ppm with Athelia rolfsii [4] was 45%.

`CCOP1(=S)OCc2cc(CC)ccc2O1` (stereo unspecified): the inhibition of growth at 100 ppm worked out at 91% with Athelia rolfsii [1] and 82% in the experiment with Pythium [2]. Also, the inhibition of growth at 10 ppm was 66% in the experiment with Athelia rolfsii [4] and 42% in the experiment on Pythium [3].

Turning to `CC(C)OP(=O)(OC(C)C)SCc1ccccc1` [IPROBENFOS], the inhibition of growth at 100 ppm with Athelia rolfsii [1] was determined as 100%; with Pythium [2], 89%. Besides, the inhibition of growth at 10 ppm with Athelia rolfsii [4] is 69%; with Pythium [3], 42%.

Take `COP1(=S)OCc2ccccc2O1` (stereo unspecified) [SALITHION]: the inhibition of growth at 100 ppm in the experiment on Athelia rolfsii [1] was 61%; in the experiment with Pythium [2], 75%.
